Like-named read-outs stand apart in the source and are kept apart here.
What was measured:
[1] = system: Aβ peptide production in rat primary neuronal culture; experiment: In vitro cellular assay: quantification of Aβ peptide in culture of neurons from rat fetus brain; type: cell-based, Wistar rat; conditions: Primary cortical neuron; Aβ ELISA, rat primary cortical neurons; Aβ species (x-40 or x-42) not given; read-out: IC50
Method: Quantification of Aβ Peptide in Culture of Neurons from Rat Fetus Brain
Primary neuronal cultures were prepared from the cerebral cortex of embryonic day 18 Wistar rats (Charles River, UK). Specifically, the embryos were aseptically removed from pregnant rats under ether anesthesia. The brain was isolated from the embryo and immersed in HBSS (Sigma Aldrich #H9269) containing 10 mM HEPES (Gibco #15630-056). The cerebral cortex was collected from the isolated brain under a stereoscopic microscope. The cerebral cortex fragments collected were enzymatically treated in an enzyme solution containing 0.05% trypsin-EDTA solution (GIBCO, #25300) at 37° C. for 20 minutes to disperse the cells. The cells were then washed twice and then gently resuspended in Neurobasal medium (Gibco #21103) supplemented with 2% B27 supplement (GIBCO #17504-044), 0.5 mM L-glutamine (GIBCO #25030), 1×N2 (GIBCO #17502-048), 100 μg/ml Pen/Strep (GIBCO 15140-122) and 5% heat inactivated FCS (PAA #A15-701). The cell dispersion was filtered through a 40-μm nylon mesh (BD Falcon #352340) to remove the remaining cell mass, and thus a neuronal cell suspension was obtained. The neuronal cell suspension was diluted with the medium above and then plated in a volume of 100 μL/well at an initial cell density of 3.25×10^5 cells/ml in poly-D-lysine coated 96-well culture plate (Greiner #655940). The plated cells were cultured in the culture plate at 37° C. in 5% CO2-95% air for 24 hrs. The total amount of the medium was replaced with ‘assay Neurobasal medium’ (as above excluding heat inactivated FCS), and then the cells were cultured for a further five days.
The drug was added to the culture plate on Day 6 of culture as follows. 8 point compound serial dilutions were generated in DMSO at a concentration of ×1000 that of the final assay concentration (FAC). Compound solutions were then prepared by adding 999 ul of ‘Assay Neurobasal media’ (as described in above section) to 1 ul of DMSO compound stock. The total amount of the medium was removed from each of the cell plate wells, and […] of ‘Assay Neurobasal media’ was added followed by […] of compound solution. The final DMSO concentration was 0.1%. […]
Cell survival was evaluated using an Alamar assay according to the following procedure. […]
Measurement of fluorescence intensity for each well was the carried out at 540/590 nm using a Pherastar plus plate reader (BMG labtech). […]
Human/Rat β Amyloid (42) ELISA Kit Wako (#290-62601) and Human/Rat P Amyloid (40) ELISA Kit Wako (#294-62501) from Wako Pure Chemical Industries, Ltd. were used for Aβ ELISA. […] The results were shown as percentage of the control groups and IC50 values for each compound were determined using four parameter logistic fit model using the XLFIT5 software package (IDBS).

Aβ40 = conditions: TASTPM mice, cited from earlier work
BACE-1 = BACE-1 (Homo sapiens, UniProt P56817); conditions: cited from earlier work
[2] = TASTPM mice, cited from earlier work; for brain concentration: oral dose of 250 mg/kg

BACE-1, sequence (P56817 46-501, species assumed): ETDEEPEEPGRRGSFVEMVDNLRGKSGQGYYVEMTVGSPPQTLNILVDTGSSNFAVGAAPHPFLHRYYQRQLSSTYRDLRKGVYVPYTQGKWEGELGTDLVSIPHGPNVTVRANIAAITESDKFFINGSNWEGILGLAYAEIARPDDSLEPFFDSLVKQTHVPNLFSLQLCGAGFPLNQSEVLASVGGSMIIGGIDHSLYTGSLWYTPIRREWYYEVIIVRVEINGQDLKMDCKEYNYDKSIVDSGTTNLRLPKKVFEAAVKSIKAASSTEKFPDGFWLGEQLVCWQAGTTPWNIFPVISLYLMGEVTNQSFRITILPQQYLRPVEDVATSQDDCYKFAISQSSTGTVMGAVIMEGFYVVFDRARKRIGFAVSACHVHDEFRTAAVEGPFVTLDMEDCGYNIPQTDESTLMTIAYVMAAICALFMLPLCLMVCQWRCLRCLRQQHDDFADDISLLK

| IC50 [1] [nM] | Compound | effect on brain Aβ40 levels (Aβ40; 250 mg/kg oral dose, absence of a Pgp inhibitor) | reduction in brain Aβ40 levels relative to vehicle-treated mice (Aβ40; 250 mg/kg oral, Pgp inhibitor co-administered 5 hours prior) [%] | IC50 (BACE-1) [nM] | increase in CNS penetration by co-administration of a Pgp inhibitor ([2]; 250 mg/kg oral, with vs without GF120918) [fold] | brain concentration ([2]; Pgp inhibitor GF120918 dosed 5 hours before) [µM] | brain concentration ([2]; no Pgp inhibitor) [µM] |
| --- | --- | --- | --- | --- | --- | --- | --- |
| 7 | COc1cnc(C(=O)Nc2cc(F)c(F)c([C@]34CO[C@H](C(F)F)[C@H]3CSC(N)=N4)c2)cn1 [Example 1, N-(3-((4aS,5S,7aS)-2-amino-5-(difluoromethyl)-4a,5,7,7a-tetrahydro-4H-furo[3,4-d][1,3]thiazin-7a-yl)-4,5-difluorophenyl)-5-methoxypyrazine-2-carboxamide] | – | – | – | – | – | – |
| – | CCNc1cc(C(=O)N[C@@H](Cc2ccccc2)[C@H](O)CNCc2cccc(C(F)(F)F)c2)c(F)c(N2CCCCS2(=O)=O)c1 [GSK188909] | did not have any effect | 68 | 5 | ~9 | 5.43 | 0.62 |

From patent US9175013B2, “Fused aminodihydrothiazine derivatives” (Eisai R&D Management Co., Ltd., priority 2011, dated 2015)
